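Test compounds were applied to cells in 96-well plates for 48 hours at 5 doses. Abbreviation: GI50, concentration required for 50% inhibition of growth.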 The source made the active and inactive calls. Rule as the data show it: active = GI50 up to about 1.1 µM and inactive = higher.
Assays:
Assay in all cases: NCI anticancer screen, dose series, 48 h
HCT-116 = tested on: HCT-116
NCI-H23 = tested on: NCI-H23
KM12 = tested on: KM12
SF-539 = tested on: SF-539
SK-MEL-28 = tested on: SK-MEL-28
SN12C = tested on: SN12C
HCC 2998 = tested on: HCC 2998
SNB-19 = tested on: SNB-19
HOP-92 = tested on: HOP-92
TK-10 = tested on: TK-10
RXF 393 = tested on: RXF 393
EKVX = tested on: EKVX
UACC-62 = tested on: UACC-62
SK-OV-3 = tested on: SK-OV-3
SK-MEL-5 = tested on: SK-MEL-5
HOP-62 = tested on: HOP-62

Structure (SMILES)	GI50 (HCT-116)	GI50 (NCI-H23)	GI50 (KM12)	GI50 (SF-539)	GI50 (SK-MEL-28)	GI50 (SN12C)	GI50 (HCC 2998)	GI50 (SNB-19)	GI50 (HOP-92)	GI50 (TK-10)	GI50 (RXF 393)	GI50 (EKVX)	GI50 (UACC-62)	GI50 (SK-OV-3)	GI50 (SK-MEL-5)	GI50 (HOP-62)
Nc1nnc2c(-c3ccccc3)n[nH]c2n1	> 100 µM (inactive)	68.7 µM (inactive)	23.2 µM (inactive)	24.8 µM (inactive)	91.6 µM (inactive)	63 µM (inactive)	93.5 µM (inactive)	57.1 µM (inactive)	12.6 µM (inactive)	23 µM (inactive)	34.1 µM (inactive)	5.9 µM (inactive)				
CC(C)OP(=S)(NC(=S)c1ccccc1)OC(C)C	> 100 µM (inactive)	> 100 µM (inactive)	> 100 µM (inactive)	> 100 µM (inactive)	> 100 µM (inactive)	> 100 µM (inactive)	> 100 µM (inactive)	> 100 µM (inactive)	> 100 µM (inactive)	> 100 µM (inactive)		> 100 µM (inactive)	> 100 µM (inactive)	> 100 µM (inactive)	42.9 µM (inactive)	
O=C(c1ccccc1)C1OC12C(=O)Nc1ccccc12 (stereo unspecified)	36.2 µM (inactive)	21.5 µM (inactive)		23.7 µM (inactive)	29.6 µM (inactive)	49.4 µM (inactive)		37.3 µM (inactive)	20.3 µM (inactive)	40.3 µM (inactive)	20.9 µM (inactive)	47.6 µM (inactive)	40.7 µM (inactive)	35.6 µM (inactive)	11.3 µM (inactive)	62.5 µM (inactive)
CCCCCC(=O)Cc1cc(OC)cc2c1C(=O)Oc1cc(O)c(C(=O)O)c(CC(=O)CCCCC)c1O2	26 µM (inactive)	19.2 µM (inactive)	46.5 µM (inactive)	> 10 µM (inactive)		> 10 µM (inactive)	48.5 µM (inactive)			63.4 µM (inactive)		33.1 µM (inactive)	20.6 µM (inactive)	46.9 µM (inactive)	> 100 µM (inactive)	> 100 µM (inactive)
O=C1C=CC2(O)OCC3C=C4O[C@@H]5OC6(CCCCC6)O[C@@H]5C4[C@@H]2[C@@H]13 (stereo partly specified)	15.8 µM (inactive)	23.8 µM (inactive)	38.5 µM (inactive)		20 µM (inactive)	48 µM (inactive)	53.2 µM (inactive)	> 100 µM (inactive)	13.2 µM (inactive)	20.7 µM (inactive)		38.3 µM (inactive)	32.7 µM (inactive)	> 100 µM (inactive)	43.5 µM (inactive)	> 100 µM (inactive)
COC1/C(=C\C(=O)OC(C)(C)C)c2ccccc2N1C(C)=O (stereo unspecified)	> 100 µM (inactive)	> 100 µM (inactive)	9.53 µM (inactive)	> 100 µM (inactive)	> 100 µM (inactive)	> 100 µM (inactive)	> 100 µM (inactive)	> 100 µM (inactive)			26.6 µM (inactive)	> 100 µM (inactive)	> 100 µM (inactive)	> 100 µM (inactive)		> 100 µM (inactive)
O=C(O)Cn1c(=O)[nH]c(=O)c2c1ncn2Cc1ccccc1	> 100 µM (inactive)	> 100 µM (inactive)	> 100 µM (inactive)	> 100 µM (inactive)	> 100 µM (inactive)	> 100 µM (inactive)		> 100 µM (inactive)	> 100 µM (inactive)	> 100 µM (inactive)		> 100 µM (inactive)	> 100 µM (inactive)	> 100 µM (inactive)	> 100 µM (inactive)	> 100 µM (inactive)
c1ccc2c(CNCCCCCCCCNCc3cccc4ccccc34)cccc2c1	1.67 µM (inactive)	3.4 µM (inactive)	1.82 µM (inactive)	1.63 µM (inactive)	1.9 µM (inactive)	6.43 µM (inactive)			2.49 µM (inactive)	1.66 µM (inactive)	1.74 µM (inactive)	6.03 µM (inactive)	1.8 µM (inactive)	17.1 µM (inactive)	1.85 µM (inactive)	16.4 µM (inactive)
Cc1cc(N(CCC#N)CCC#N)ccc1/C=C1\N=C(c2cc([N+](=O)[O-])ccc2Cl)N(c2cccc(Cl)c2)C1=O	> 100 µM (inactive)	> 100 µM (inactive)	> 100 µM (inactive)	> 100 µM (inactive)	> 100 µM (inactive)	> 100 µM (inactive)	> 100 µM (inactive)	< 0.01 µM (active)	> 100 µM (inactive)	> 100 µM (inactive)		23.8 µM (inactive)	> 100 µM (inactive)	> 100 µM (inactive)	> 100 µM (inactive)	> 100 µM (inactive)
CCCCOC1CC2(c3ccc(OC)cc3)C(=O)c3ccccc3N2O1 (stereo unspecified)	37.5 µM (inactive)		62.2 µM (inactive)	90.6 µM (inactive)		> 10 µM (inactive)		> 10 µM (inactive)		> 100 µM (inactive)	16.6 µM (inactive)	40.7 µM (inactive)	> 10 µM (inactive)	> 100 µM (inactive)	31.7 µM (inactive)	
CC1(C)OC2C(O1)[C@H]1OC(C(Cl)(Cl)Cl)=N[C@H]1C(I)[C@H]2N1C(=O)c2ccccc2C1=O (stereo partly specified)	47.1 µM (inactive)	58.2 µM (inactive)	49.7 µM (inactive)	> 100 µM (inactive)	92.3 µM (inactive)	74.8 µM (inactive)		> 100 µM (inactive)	40.6 µM (inactive)		28.9 µM (inactive)	79.3 µM (inactive)	54.5 µM (inactive)		48.9 µM (inactive)	> 100 µM (inactive)
CCCCCCCCCCCCCP(=O)(O)OCC	> 100 µM (inactive)	> 100 µM (inactive)	> 100 µM (inactive)	> 100 µM (inactive)	> 100 µM (inactive)	> 100 µM (inactive)	> 100 µM (inactive)	> 100 µM (inactive)	> 100 µM (inactive)	> 100 µM (inactive)	> 100 µM (inactive)	> 100 µM (inactive)	> 100 µM (inactive)		> 100 µM (inactive)	> 100 µM (inactive)
COc1cc2cc[n+]3c4cc(OC)c(OC)cc4c(C)cc3c2cc1OC	> 100 µM (inactive)	> 100 µM (inactive)	> 100 µM (inactive)	> 100 µM (inactive)	> 100 µM (inactive)	> 100 µM (inactive)	61.8 µM (inactive)	29.3 µM (inactive)	> 100 µM (inactive)	> 100 µM (inactive)		> 100 µM (inactive)	> 100 µM (inactive)	> 100 µM (inactive)	> 100 µM (inactive)	> 100 µM (inactive)
COc1cc(Nc2cnc3ccc(C(F)(F)F)cc3n2)cc(OC)c1OC	45.8 µM (inactive)	> 100 µM (inactive)		32.1 µM (inactive)	> 100 µM (inactive)	> 100 µM (inactive)	4.43 µM (inactive)	> 100 µM (inactive)	4.82 µM (inactive)	38.1 µM (inactive)	68.4 µM (inactive)	> 100 µM (inactive)				23.9 µM (inactive)
C1=Cc2nc1c(-c1ccccc1)c1nc(c(-c3ccccc3)c3ccc([nH]3)c(-c3ccccc3)c3ccc([nH]3)c2-c2ccccc2)C=C1 [TETRAPHENYLPORPHYRIN]	> 100 µM (inactive)	> 100 µM (inactive)	> 100 µM (inactive)	> 100 µM (inactive)	> 100 µM (inactive)	> 100 µM (inactive)	> 100 µM (inactive)	> 100 µM (inactive)	> 100 µM (inactive)	> 100 µM (inactive)		> 100 µM (inactive)	> 100 µM (inactive)	> 100 µM (inactive)	> 100 µM (inactive)	> 100 µM (inactive)
C=CCN1/C(=C2\SC(=S)N(c3ccc(C)cc3)C2=O)Sc2c1nc[nH]c2=O	> 100 µM (inactive)	> 100 µM (inactive)		48.3 µM (inactive)	> 100 µM (inactive)	77.1 µM (inactive)		> 100 µM (inactive)	> 100 µM (inactive)	> 100 µM (inactive)	26.4 µM (inactive)	> 100 µM (inactive)	> 100 µM (inactive)	> 100 µM (inactive)	66.1 µM (inactive)	> 100 µM (inactive)
COc1nc(/C=N/NC(N)=S)nc(OC)n1	64.4 µM (inactive)	> 100 µM (inactive)	> 100 µM (inactive)	32.4 µM (inactive)	> 100 µM (inactive)	71.6 µM (inactive)	47.1 µM (inactive)	> 100 µM (inactive)	> 100 µM (inactive)	> 100 µM (inactive)	> 100 µM (inactive)	> 100 µM (inactive)	35.3 µM (inactive)	> 100 µM (inactive)		
O=[N+]([O-])c1ccc(Cl)cc1C1SCc2nc3ccccc3n21 (stereo unspecified)	38.3 µM (inactive)	27.6 µM (inactive)	41.9 µM (inactive)	> 100 µM (inactive)	> 100 µM (inactive)	54.1 µM (inactive)	86.3 µM (inactive)	74.6 µM (inactive)		87.5 µM (inactive)	26.6 µM (inactive)	69.7 µM (inactive)	61.8 µM (inactive)	62.8 µM (inactive)	27.7 µM (inactive)	> 100 µM (inactive)
O=c1cc(-c2ccccc2)oc2cc(OCCSCCCCCCCCCCSCCOc3ccc4c(=O)cc(-c5ccccc5)oc4c3)ccc12	> 100 µM (inactive)	> 100 µM (inactive)	> 100 µM (inactive)		> 100 µM (inactive)	> 100 µM (inactive)	> 100 µM (inactive)	51.2 µM (inactive)	43.5 µM (inactive)	> 100 µM (inactive)	37.2 µM (inactive)	> 100 µM (inactive)	65.9 µM (inactive)	74.1 µM (inactive)	> 100 µM (inactive)	51.9 µM (inactive)

From ChEMBL document CHEMBL1201862, “PubChem BioAssay data set” (2004)
